Assay results from PubChem BioAssay (NCI).
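Exposure lasted 48 hours, with cells grown in 96-well plates and compounds tested at five concentrations. At the GI50, growth is halved. TGI marks complete inhibition of growth.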

Assays:
Assay in all cases: NCI-60 cell line screen, 48 h
SK-MEL-5 melanoma = system: SK-MEL-5 melanoma
NCI-H226 lung = system: NCI-H226 lung
786-0 renal = system: 786-0 renal
ACHN renal = system: ACHN renal
SN12C renal = system: SN12C renal
UACC-257 melanoma = system: UACC-257 melanoma
SNB-19 CNS = system: SNB-19 CNS
HCC-2998 colon = system: HCC-2998 colon
SK-OV-3 ovarian = system: SK-OV-3 ovarian
BT-549 breast = system: BT-549 breast
COLO 205 colon = system: COLO 205 colon
HL-60(TB) leukemia = system: HL-60(TB) leukemia
MDA-MB-231 breast = system: MDA-MB-231 breast
OVCAR-4 ovarian = system: OVCAR-4 ovarian
OVCAR-8 ovarian = system: OVCAR-8 ovarian
NCI-H23 lung = system: NCI-H23 lung
M14 melanoma = system: M14 melanoma
OVCAR-5 ovarian = system: OVCAR-5 ovarian
SF-268 CNS = system: SF-268 CNS
MOLT-4 leukemia = system: MOLT-4 leukemia
UACC-62 melanoma = system: UACC-62 melanoma
RXF 393 renal = system: RXF 393 renal
HOP-62 NSCLC = system: HOP-62 NSCLC
A549 NSCLC = system: A549 NSCLC
T-47D breast = system: T-47D breast
PC-3 prostate = system: PC-3 prostate
CCRF-CEM leukemia = system: CCRF-CEM leukemia
NCI-H460 lung = system: NCI-H460 lung

In the case of COc1ccc(/C=C/C(=O)c2ccc(OC)c(OC)c2)cc1O, the GI50 (SK-MEL-5 melanoma) is reported as 5.9 µM, the TGI (SK-MEL-5 melanoma) is reported as 18.8 µM and the GI50 (NCI-H226 lung) is reported as 11.1 µM. It also gave a TGI (NCI-H226 lung) of 25.4 µM, a GI50 (786-0 renal) of 14.2 µM and a TGI (786-0 renal) of 65.8 µM. The GI50 (ACHN renal) was 6.15 µM, the TGI (ACHN renal) was > 100 µM and the GI50 (SN12C renal) was 3.74 µM. It also gave a TGI (SN12C renal) of 15.6 µM, a GI50 (UACC-257 melanoma) of 13.8 µM and a TGI (UACC-257 melanoma) of 26.9 µM. For the same molecule, the GI50 (SNB-19 CNS) was 6.42 µM, the TGI (SNB-19 CNS) was 20.8 µM and the GI50 (HCC-2998 colon) was 9.1 µM. It also gave a TGI (HCC-2998 colon) of 22.1 µM, a GI50 (SK-OV-3 ovarian) of 6.51 µM and a TGI (SK-OV-3 ovarian) of 45 µM. The GI50 (BT-549 breast) was 5.5 µM, the TGI (BT-549 breast) was 17.4 µM and the GI50 (COLO 205 colon) was 12.5 µM. For the same molecule, the TGI (COLO 205 colon) was 25 µM, the GI50 (HL-60(TB) leukemia) was 13.9 µM and the TGI (HL-60(TB) leukemia) was 52.2 µM. The GI50 (MDA-MB-231 breast) was 4.76 µM, the TGI (MDA-MB-231 breast) was 31.8 µM and the GI50 (OVCAR-4 ovarian) was 8.45 µM. The TGI (OVCAR-4 ovarian) was 20.8 µM, the GI50 (OVCAR-8 ovarian) was 2.98 µM and the TGI (OVCAR-8 ovarian) was 10.9 µM. It also gave a GI50 (NCI-H23 lung) of 9.91 µM, a TGI (NCI-H23 lung) of 30.4 µM and a GI50 (M14 melanoma) of 10.9 µM. It also gave a TGI (M14 melanoma) of 23.3 µM, a GI50 (OVCAR-5 ovarian) of 4.94 µM and a TGI (OVCAR-5 ovarian) of 28.9 µM. It also gave a GI50 (SF-268 CNS) of 8.74 µM, a TGI (SF-268 CNS) of 29.1 µM and a GI50 (MOLT-4 leukemia) of 4.32 µM. It also gave a TGI (MOLT-4 leukemia) of 26.1 µM, a GI50 (UACC-62 melanoma) of 11.2 µM and a TGI (UACC-62 melanoma) of 24.3 µM. It also gave a GI50 (RXF 393 renal) of 2.63 µM, a TGI (RXF 393 renal) of 7.62 µM and a GI50 (HOP-62 NSCLC) of 3.61 µM. The TGI (HOP-62 NSCLC) was 14.5 µM, the GI50 (A549 NSCLC) was 2.99 µM and the TGI (A549 NSCLC) was 15.1 µM. For the same molecule, the GI50 (T-47D breast) was 5.74 µM, the TGI (T-47D breast) was 25.5 µM and the GI50 (PC-3 prostate) was 12.8 µM. It also gave a TGI (PC-3 prostate) of 39.6 µM, a GI50 (CCRF-CEM leukemia) of 3.51 µM and a TGI (CCRF-CEM leukemia) of 23.9 µM. The GI50 (NCI-H460 lung) was 3.44 µM.
